Test results reported in US20240269105A1, “USE OF SGLT-2 INHIBITORS FOR THE PREVENTION AND/OR TREATMENT OF HYPERTENSION IN NON-HUMAN MAMMALS” (BOEHRINGER INGELHEIM VETMEDICA GMBH, priority 2021, published 2024).

Tests used:
[1] = test system: human patients suffering from diabetes mellitus type II; conditions: baseline to week 12; empagliflozin 10 mg and 25 mg groups vs placebo; N=825; 'up to'; cited from earlier work
[2] = test system: dogs previously diagnosed with high systolic blood pressure; assay: Clinical field study (Dogs): systolic blood pressure; format: in vivo, dog; conditions: dogs (n=5-10), 4 weeks of treatment, open label
Protocol: (§1) In a clinical field study, the effect of velagliflozin on systolic blood pressure administered to dogs (n=5-10) previously diagnosed with high systolic blood pressure, is evaluated over a period of 1 month. Systolic blood pressure measurements are performed in accordance with the ACVIM consensus statement (Ref. 3). Systolic blood pressure is measured before treatment start and during weekly consecutive visits (4 weeks of treatment). The study is an open label study (unmasked). The data of this field trial confirm an average reduction of systolic blood pressure of about 5-10 mmHg.

[3] = test system: cats previously diagnosed with high systolic blood pressure; assay: Clinical field study (Cats): systolic blood pressure; format: in vivo, cat; conditions: cats (n=5-10), 4 weeks of treatment, open label
Protocol: as §1, with “cats” for “dogs”

OC[C@H]1O[C@@H](c2ccc(Cl)c(Cc3ccc(O[C@H]4CCOC4)cc3)c2)[C@H](O)[C@@H](O)[C@@H]1O [empagliflozin, Empagliflozin]
placebo-subtracted mean difference of mean 24-hour systolic BP [1]: up to −4.16 mmHg

N#Cc1ccc([C@@H]2O[C@H](CO)[C@@H](O)[C@H](O)[C@H]2O)cc1Cc1ccc(C2CC2)cc1 [velagliflozin, Velagliflozin]
average reduction of systolic blood pressure [2]: 5-10 mmHg | average reduction of systolic blood pressure [3]: 5-10 mmHg
